In article PMC12005787, “Synthetic Lethality of SHP2 and XIAP Suppresses Proliferation and Metastasis in KRAS‐mutant Nonsmall Cell Lung Cancer” (Advanced Science, 2025):

Tested on: MIG‐6 and SPRY2 in NCI‐H2122 cells
Assay: MIG-6 and SPRY2 protein expression (western blotting)
Assay type: cell-based, human
Settings: 24 h
Protocol: Transwell, and the subsequent experiments were performed as described in Cell migration […]
After given treatment, cells were lysed by ice bath with radio-immunoprecipitation assay (RIPA) buffer containing 1% phenylmethylsulphonyl fluoride (PMSF), and the supernatant was collected by centrifugation, and the protein concentration was subsequently determined using a BCA Protein Assay Kit. Depending on the molecular weight of the proteins, different concentrations of sodium dodecyl-sulfate polyacrylamide gel electrophoresis (SDS-PAGE) separator gels were prepared for protein electrophoresis. Equal amounts of proteins were sampled and subjected to SDS-PAGE gel electrophoresis; at the end of electrophoresis, the proteins were transferred to nitrocellulose (NC) membranes. The NC membrane was blocked with 5% skim milk and covered with a specific primary antibody overnight at 4 °C, in which the primary antibody was diluted at a ratio of 1:500–1:5000. The NC membrane was […]

## CCCCCCCCCCCC1=C(O)C(=O)C=C(O)C1=O [Embelin]
  expression of MIG‐6 and SPRY2: significantly promoted the expression
